Inconclusive results are not listed.
Tested on: nude mice, HT29 intrarenal xenograft, tumor weight T/C
Assay: NCI In Vivo Anticancer Drug Screen. Data for tumor model HT29;CX-1 Human Adenocarcinoma (MER+) (intrarenal inoculation) in NU/NU Swiss (nude) mice
Details: endpoint: mean tumor weight change, higher = larger tumour
How it was run: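 Endpoint measured as tumor size or survival; ratio reported is treated group over vehicle controls.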

[1] = dose: 150.0 mg/kg/injection, schedule: Q04DX004 (sc), vehicle: saline with Tween-80
[2] = dose: 300.0 mg/kg/injection, schedule: Q04DX004 (sc), vehicle: saline with Tween-80
[3] = dose: 600.0 mg/kg/injection, schedule: Q04DX004 (sc), vehicle: saline with Tween-80
[4] = dose: 1200.0 mg/kg/injection, schedule: Q04DX004 (sc), vehicle: saline with Tween-80
[5] = dose: 300.0 mg/kg/injection, schedule: Q04DX004 (sc), vehicle: Klucel (hydroxypropylcellulose) (HPC)
[6] = dose: 75.0 mg/kg/injection, schedule: Q04DX004 (sc), vehicle: saline with Tween-80
[7] = dose: 2400.0 mg/kg/injection, schedule: Q04DX004 (sc), vehicle: saline with Tween-80
[8] = dose: 200.0 mg/kg/injection, schedule: Q04DX004 (sc), vehicle: saline with Tween-80
[9] = dose: 800.0 mg/kg/injection, schedule: Q04DX004 (sc), vehicle: saline with Tween-80
[10] = dose: 300.0 mg/kg/injection, schedule: Q04DX004 (sc), vehicle: suspension in saline
[11] = dose: 600.0 mg/kg/injection, schedule: Q04DX004 (sc), vehicle: suspension in saline
[12] = dose: 1200.0 mg/kg/injection, schedule: Q04DX004 (sc), vehicle: suspension in saline
[13] = dose: 12.5 mg/kg/injection, schedule: Q01DX010 (sc), vehicle: saline
[14] = dose: 25.0 mg/kg/injection, schedule: Q01DX010 (sc), vehicle: saline

## CO[C@H](/C(C)=C/C=C/C(C)=C/c1coc(C)n1)[C@H](C)[C@H]1C[C@@H](O)[C@@]2(C)O[C@H]2/C=C/[C@@H](C)[C@@H]2C[C@@H](CC(=O)O2)C[C@H]2O[C@@H]2C(=O)O1
dose: 0.12 mg/kg/injection, schedule: Q04DX004 (sc), vehicle: Klucel (hydroxypropylcellulose) (HPC)
  T/C: 87 % of control
dose: 0.25 mg/kg/injection, schedule: Q04DX004 (sc), vehicle: Klucel (hydroxypropylcellulose) (HPC)
  T/C: 45 % of control
dose: 0.5 mg/kg/injection, schedule: Q04DX004 (sc), vehicle: Klucel (hydroxypropylcellulose) (HPC)
  T/C: 30 % of control

## c1cc[c]([Sn][c]2ccccc2)cc1
dose: 80.0 mg/kg/injection, schedule: Q01DX010 (sc), vehicle: saline
  T/C: 88 % of control
dose: 160.0 mg/kg/injection, schedule: Q01DX010 (sc), vehicle: saline
  T/C: 113 % of control
dose: 320.0 mg/kg/injection, schedule: Q01DX010 (sc), vehicle: saline
  T/C: 122 % of control

## CC(C)[NH-].CC(C)[NH-].[Cl][Pt+2][Cl]
dose: 37.5 mg/kg/injection, schedule: Q04DX004 (sc), vehicle: dextrose
  T/C: 58 % of control
dose: 75.0 mg/kg/injection, schedule: Q04DX004 (sc), vehicle: dextrose
  T/C: 43 % of control
dose: 150.0 mg/kg/injection, schedule: Q04DX004 (sc), vehicle: dextrose
  T/C: 21 % of control

## COC(=Nc1ccccc1)SSC(C)C
[1]
  T/C: 104 % of control
[2]
  T/C: 118 % of control
[3]
  T/C: 117 % of control
[4]
  T/C: 117 % of control

## NC(=O)c1ncn(C2OC(CO)C(O)C2O)c1O (stereo not drawn)
dose: 37.5 mg/kg/injection, schedule: Q04DX004 (sc), vehicle: Klucel (hydroxypropylcellulose) (HPC)
  T/C: 76 % of control
dose: 75.0 mg/kg/injection, schedule: Q04DX004 (sc), vehicle: Klucel (hydroxypropylcellulose) (HPC)
  T/C: 77 % of control
dose: 150.0 mg/kg/injection, schedule: Q04DX004 (sc), vehicle: Klucel (hydroxypropylcellulose) (HPC)
  T/C: 71 % of control
[5]
  T/C: 62 % of control

## ClCCCCCCCCCCc1ccccc1
dose: 100.0 mg/kg/injection, schedule: Q01DX010 (sc), vehicle: Klucel (hydroxypropylcellulose) (HPC)
  T/C: 23 % of control
dose: 200.0 mg/kg/injection, schedule: Q01DX010 (sc), vehicle: Klucel (hydroxypropylcellulose) (HPC)
  T/C: 36 % of control
dose: 400.0 mg/kg/injection, schedule: Q01DX010 (sc), vehicle: Klucel (hydroxypropylcellulose) (HPC)
  T/C: 57 % of control

## CCN(CC)CCNc1ccc(C)c2sc3ccc(O)cc3c(=O)c12
[6]
  T/C: 53 % of control
[1]
  T/C: 74 % of control
[3]
  T/C: 103 % of control
[4]
  T/C: 41 % of control
[7]
  T/C: 58 % of control

## CC(=O)OCC1OC(OC2=C(CC=C(C)C)C(=O)c3ccccc3C2=O)C(OC(C)=O)C(OC(C)=O)C1OC(C)=O (stereo not drawn)
dose: 100.0 mg/kg/injection, schedule: Q04DX004 (sc), vehicle: Klucel (hydroxypropylcellulose) (HPC)
  T/C: 159 % of control
dose: 200.0 mg/kg/injection, schedule: Q04DX004 (sc), vehicle: Klucel (hydroxypropylcellulose) (HPC)
  T/C: 105 % of control

## CC1(C)OC1CS(=O)c1ccccc1 (stereo not drawn)
[8]
  T/C: 61 % of control
dose: 400.0 mg/kg/injection, schedule: Q04DX004 (sc), vehicle: saline with Tween-80
  T/C: 117 % of control
[9]
  T/C: 94 % of control

## C[n+]1ccc(Nc2ccc(NC(=O)c3ccc(Nc4cc[n+](C)c5ccc(N)cc45)cc3)cc2)cc1
dose: 8.0 mg/kg/injection, schedule: Q04DX004 (sc), vehicle: distilled water + Tween-80
  T/C: 74 % of control
dose: 16.0 mg/kg/injection, schedule: Q04DX004 (sc), vehicle: distilled water + Tween-80
  T/C: 211 % of control
dose: 25.0 mg/kg/injection, schedule: Q04DX004 (sc), vehicle: distilled water + Tween-80
  T/C: 118 % of control
dose: 32.0 mg/kg/injection, schedule: Q04DX004 (sc), vehicle: distilled water + Tween-80
  T/C: 303 % of control
dose: 50.0 mg/kg/injection, schedule: Q04DX004 (sc), vehicle: distilled water + Tween-80
  T/C: 51 % of control

## COCC(O)Cn1ccnc1[N+](=O)[O-] (stereo not drawn)
[10]
  T/C: 86 % of control
[11]
  T/C: 80 % of control
[12]
  T/C: 75 % of control

## CN1C(=O)C(=Cc2ccc(O)cc2)C(=O)N(C)C1=O
[1]
  T/C: 116 % of control
[2]
  T/C: 101 % of control
[3]
  T/C: 99 % of control
[4]
  T/C: 74 % of control

## CCCCNC(C)[C@]1(O)Cc2c(O)c3c(c(O)c2[C@@H](OC2CC(N)C(O)C(C)O2)C1)C(=O)c1c(OC)cccc1C3=O (stereo partly drawn)
dose: 3.12 mg/kg/injection, schedule: Q01DX010 (sc), vehicle: saline
  T/C: 179 % of control
[13]
  T/C: 103 % of control
[14]
  T/C: 94 % of control

## COc1ccc(C(=O)/C(Br)=C/C(=O)O)cc1
[13]
  T/C: 73 % of control
[14]
  T/C: 122 % of control
dose: 50.0 mg/kg/injection, schedule: Q01DX010 (sc), vehicle: saline
  T/C: 56 % of control

## CCSC(=O)N1c2ccc(OC)cc2C=CC1C#N (stereo not drawn)
[3]
  T/C: 93 % of control
[4]
  T/C: 84 % of control
[7]
  T/C: 53 % of control

## C[Si](C)(C)O/C=C1/CCOC1=O
dose: 100.0 mg/kg/injection, schedule: Q04DX004 (sc), vehicle: suspension in saline
  T/C: 98 % of control
dose: 200.0 mg/kg/injection, schedule: Q04DX004 (sc), vehicle: suspension in saline
  T/C: 93 % of control
dose: 800.0 mg/kg/injection, schedule: Q04DX004 (sc), vehicle: suspension in saline
  T/C: 107 % of control

## Nc1ccc(Cl)cc1N
dose: 450.0 mg/kg/injection, schedule: Q04DX004 (sc), vehicle: saline with Tween-80
  T/C: 41 % of control
dose: 900.0 mg/kg/injection, schedule: Q04DX004 (sc), vehicle: saline with Tween-80
  T/C: 78 % of control
dose: 1800.0 mg/kg/injection, schedule: Q04DX004 (sc), vehicle: saline with Tween-80
  T/C: 30 % of control

## CC1CN1C(=O)NCCCCCCNC(=O)N1CC1C (stereo not drawn)
dose: 10.0 mg/kg/injection, schedule: Q04DX004 (sc), vehicle: Klucel (hydroxypropylcellulose) (HPC)
  T/C: 36 % of control
dose: 40.0 mg/kg/injection, schedule: Q04DX004 (sc), vehicle: Klucel (hydroxypropylcellulose) (HPC)
  T/C: 16 % of control

## CCNC(=O)[B-][N+](C)(C)C
dose: 100.0 mg/kg/injection, schedule: Q04DX004 (sc), vehicle: saline
  T/C: 94 % of control
dose: 200.0 mg/kg/injection, schedule: Q04DX004 (sc), vehicle: saline
  T/C: 60 % of control
dose: 400.0 mg/kg/injection, schedule: Q04DX004 (sc), vehicle: saline
  T/C: 43 % of control

## CC(=O)OCC1OC(n2ccc(N)nc2=O)C(OC(C)=O)C1OC(C)=O (stereo not drawn)
[10]
  T/C: 43 % of control
[11]
  T/C: 50 % of control
[12]
  T/C: 43 % of control
dose: 2400.0 mg/kg/injection, schedule: Q04DX004 (sc), vehicle: suspension in saline
  T/C: 24 % of control

## Cc1ccc(S(=O)(=O)NC(=O)OC23COCN2COC3)cc1
[8]
  T/C: 84 % of control
[9]
  T/C: 153 % of control
dose: 1600.0 mg/kg/injection, schedule: Q04DX004 (sc), vehicle: saline with Tween-80
  T/C: 121 % of control

## C[n+]1c(/C=C\C=C\N2CCCCC2)sc2ccccc21
dose: 1.5 mg/kg/injection, schedule: Q04DX004 (sc), vehicle: Klucel (hydroxypropylcellulose) (HPC)
  T/C: 84 % of control
dose: 3.0 mg/kg/injection, schedule: Q04DX004 (sc), vehicle: Klucel (hydroxypropylcellulose) (HPC)
  T/C: 41 % of control

## COc1c(CNC(=O)CCl)cc2[nH]c(C)cc2c1CNC(=O)CCl
[5]
  T/C: 192 % of control
dose: 600.0 mg/kg/injection, schedule: Q04DX004 (sc), vehicle: Klucel (hydroxypropylcellulose) (HPC)
  T/C: 124 % of control

## CCCCCC1c2cc(O)ccc2OC1N1CCOCC1 (stereo not drawn)
[6]
  T/C: 29 % of control
[1]
  T/C: 34 % of control
[4]
  T/C: 57 % of control
[7]
  T/C: 15 % of control

## N/C=N/O
dose: 400.0 mg/kg/injection, schedule: Q01DX010 (sc), vehicle: saline
  T/C: 111 % of control

## COc1cccc2c1C(=O)c1c(O)c3c(c(O)c1C2=O)C[C@@](O)(/C(C)=N\NC(=O)CO)C[C@@H]3OC1CC(N)C(O)C(C)O1 (stereo partly drawn)
dose: 15.63 mg/kg/injection, schedule: Q04DX004 (sc), vehicle: saline
  T/C: 52 % of control
dose: 31.25 mg/kg/injection, schedule: Q04DX004 (sc), vehicle: saline
  T/C: 16 % of control
dose: 62.5 mg/kg/injection, schedule: Q04DX004 (sc), vehicle: saline
  T/C: 18 % of control

## N[C@H](C(=O)O)[C@@H]1CC(Cl)=NO1
dose: 4.0 mg/kg/injection, schedule: Q01DX010 (sc), vehicle: saline
  T/C: 21 % of control
dose: 8.0 mg/kg/injection, schedule: Q01DX010 (sc), vehicle: saline
  T/C: 35 % of control
